Results on ten compounds are retold here after patent US7427608B2, “Protection against and treatment of hearing loss” (The Research Foundation of State University of New York, priority 2001, dated 2008).

Read-outs that look alike come from different tables or passages of the source.

For data set [1], the system named is ovarian tumor cells (tumor N015) and abdominal carcinoma from patients. Nature of the data set: Patient tumor cell culture, comparison with cancer drugs. Format: cell-based, human. The text has this: The initial non-peptide Src inhibitors have also shown very encouraging results in four different series of cell culture assays. 1) In the NIH 60-tumor cell panel assay, broad activity (as one would expect for a Src inhibitor) was seen against the tumor cell lines, including the prostate lines. […] 3) The Src inhibitors were compared to the cancer drugs etoposide, taxol, doxorubicin, and cisplatin in ovarian tumors from three different patients and an abdominal carcinoma from another patient. […] 5) Two of the Src inhibitors were also tested for inhibition of ts v-Src stimulated LA25 cell growth. […] 6) Two of the Src inhibitors were also tested for inhibition of normal rat kidney cell growth.

Data set [2] concerns the target T1, p56 lck (Homo sapiens, UniProt P06239). As to conditions: analyzed with the tyrosine kinase p56^lck; cited from earlier work.
The test system of data set [3] is human lung cancer cell line H460. As to the kind of experiment: Inhibition of growth of human lung cancer cell line H460. Type of data set: cell-based. The note with it: NCI-H460, 72 hours, total protein/well. An excerpt: The results are in Table 2, below.
Data set [4] addresses Epidermal Growth Factor Receptor Tyrosine Kinase (EGFRTK) (Homo sapiens, UniProt P00533). Nature of the data set: Inhibition of EGFRTK. Format: biochemical. The note with it: compound at 10 micromolar. An excerpt:
(§1) Blanks for a particular enzyme indicate that inhibition was not found.

The target of data set [5] is T1, p56 lck. As to the kind of experiment: Inhibition of p56 lck. Type of data set: biochemical. As to conditions: compound at 10 micromolar.
Excerpt: as §1

The target in data set [6] is full length human purified recombinant pp60^c-src (Homo sapiens, UniProt P12931). Nature of the data set: Inhibition of isolated Src (Lai et al. 1998 assay, intracellular-mimetic conditions). Format: biochemical.
Description: Subsequent to synthesis, several of the above compounds were tested for inhibition of the growth of human lung cancer cell line H460 and inhibition of isolated Src.
The conditions of data set [7]: mouse, in vivo, ip.
Description: These compounds were administered to SCID mice by intraperitoneal administration in tween80:EtOH.
Data set [8] has as its target p55 fyn (Homo sapiens, UniProt P06241). Nature of the data set: Inhibition of p55 fyn. Type of data set: biochemical. The note with it: compound at 10 micromolar.
Excerpt: as §1

T1 sequence (P06239 whole entry, species assumed): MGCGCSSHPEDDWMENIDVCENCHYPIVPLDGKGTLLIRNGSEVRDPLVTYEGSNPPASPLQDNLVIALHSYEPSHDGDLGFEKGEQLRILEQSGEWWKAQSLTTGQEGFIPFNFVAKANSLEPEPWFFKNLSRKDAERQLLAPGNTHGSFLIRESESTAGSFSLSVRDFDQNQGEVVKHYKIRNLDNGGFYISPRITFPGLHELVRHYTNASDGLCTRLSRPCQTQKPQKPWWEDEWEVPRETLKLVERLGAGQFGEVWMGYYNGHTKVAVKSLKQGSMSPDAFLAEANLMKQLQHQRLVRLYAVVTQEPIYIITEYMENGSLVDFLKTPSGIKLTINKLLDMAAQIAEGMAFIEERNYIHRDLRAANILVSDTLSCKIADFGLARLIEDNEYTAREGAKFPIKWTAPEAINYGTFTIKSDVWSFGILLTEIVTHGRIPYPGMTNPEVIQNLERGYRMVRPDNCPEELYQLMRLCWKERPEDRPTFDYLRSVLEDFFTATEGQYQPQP
Sequence of full length human purified recombinant pp60^c-src (P12931 whole entry): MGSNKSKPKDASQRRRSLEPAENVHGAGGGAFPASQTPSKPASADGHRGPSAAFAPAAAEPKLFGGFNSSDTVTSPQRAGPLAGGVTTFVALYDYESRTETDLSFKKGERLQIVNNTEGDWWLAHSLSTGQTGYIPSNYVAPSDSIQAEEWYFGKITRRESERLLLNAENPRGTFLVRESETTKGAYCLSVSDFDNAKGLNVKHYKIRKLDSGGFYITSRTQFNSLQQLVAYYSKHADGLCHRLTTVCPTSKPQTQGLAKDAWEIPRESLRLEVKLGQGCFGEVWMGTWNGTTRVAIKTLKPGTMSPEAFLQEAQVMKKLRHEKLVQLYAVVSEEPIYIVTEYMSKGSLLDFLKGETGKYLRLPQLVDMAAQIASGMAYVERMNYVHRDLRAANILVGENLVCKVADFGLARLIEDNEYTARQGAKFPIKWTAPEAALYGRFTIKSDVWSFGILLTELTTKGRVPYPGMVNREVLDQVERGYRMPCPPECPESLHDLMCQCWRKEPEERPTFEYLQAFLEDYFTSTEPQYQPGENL
Sequence of Epidermal Growth Factor Receptor Tyrosine Kinase (EGFRTK) (P00533 25-1210): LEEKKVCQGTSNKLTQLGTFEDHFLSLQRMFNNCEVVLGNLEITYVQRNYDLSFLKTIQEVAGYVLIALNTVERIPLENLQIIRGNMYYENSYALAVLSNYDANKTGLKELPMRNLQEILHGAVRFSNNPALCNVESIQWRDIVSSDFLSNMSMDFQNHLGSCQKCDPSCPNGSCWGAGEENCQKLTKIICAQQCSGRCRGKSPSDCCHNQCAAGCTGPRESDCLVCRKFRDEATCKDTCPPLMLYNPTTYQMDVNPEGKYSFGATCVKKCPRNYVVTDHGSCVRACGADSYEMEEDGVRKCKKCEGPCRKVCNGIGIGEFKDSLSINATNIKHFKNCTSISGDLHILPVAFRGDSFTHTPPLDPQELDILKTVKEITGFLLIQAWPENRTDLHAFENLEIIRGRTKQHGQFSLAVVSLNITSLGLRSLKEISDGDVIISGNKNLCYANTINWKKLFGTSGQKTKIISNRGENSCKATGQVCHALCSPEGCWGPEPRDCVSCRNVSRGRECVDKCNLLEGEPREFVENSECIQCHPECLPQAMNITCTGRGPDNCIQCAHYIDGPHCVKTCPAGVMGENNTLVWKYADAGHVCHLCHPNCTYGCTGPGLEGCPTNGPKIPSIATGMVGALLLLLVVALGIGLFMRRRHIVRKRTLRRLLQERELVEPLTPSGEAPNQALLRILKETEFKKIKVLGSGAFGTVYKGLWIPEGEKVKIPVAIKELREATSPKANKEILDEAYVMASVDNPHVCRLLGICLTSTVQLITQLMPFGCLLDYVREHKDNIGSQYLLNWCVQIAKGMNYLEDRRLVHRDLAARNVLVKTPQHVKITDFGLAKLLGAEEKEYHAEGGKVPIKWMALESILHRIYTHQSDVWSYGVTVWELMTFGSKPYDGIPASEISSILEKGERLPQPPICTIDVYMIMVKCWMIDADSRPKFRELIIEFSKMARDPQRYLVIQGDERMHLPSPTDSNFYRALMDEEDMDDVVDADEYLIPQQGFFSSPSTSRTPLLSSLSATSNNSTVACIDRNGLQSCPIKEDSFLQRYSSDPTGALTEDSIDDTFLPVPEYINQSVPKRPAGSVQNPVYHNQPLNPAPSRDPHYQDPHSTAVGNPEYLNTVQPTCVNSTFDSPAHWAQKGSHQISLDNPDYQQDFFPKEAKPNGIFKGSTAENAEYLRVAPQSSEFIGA
Sequence of p55 fyn (P06241 whole entry): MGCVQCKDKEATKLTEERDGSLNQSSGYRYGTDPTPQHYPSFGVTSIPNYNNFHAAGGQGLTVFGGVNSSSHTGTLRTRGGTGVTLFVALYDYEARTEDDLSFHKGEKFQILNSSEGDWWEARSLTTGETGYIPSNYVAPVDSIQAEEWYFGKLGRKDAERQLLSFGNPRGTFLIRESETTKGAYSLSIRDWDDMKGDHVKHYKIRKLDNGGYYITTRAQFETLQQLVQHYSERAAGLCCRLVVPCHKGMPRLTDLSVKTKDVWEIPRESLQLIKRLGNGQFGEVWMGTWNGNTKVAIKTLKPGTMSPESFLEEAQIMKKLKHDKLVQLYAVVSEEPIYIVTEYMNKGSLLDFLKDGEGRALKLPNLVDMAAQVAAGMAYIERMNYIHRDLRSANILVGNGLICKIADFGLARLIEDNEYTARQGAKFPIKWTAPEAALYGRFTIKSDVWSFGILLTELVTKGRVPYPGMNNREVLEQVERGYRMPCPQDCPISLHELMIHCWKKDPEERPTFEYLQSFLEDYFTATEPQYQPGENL

With `CC(=O)O[C@H]1C(=O)[C@@]2(C)[C@H]([C@H](OC(=O)c3ccccc3)[C@]3(O)C[C@H](OC(=O)[C@H](O)[C@@H](NC(=O)c4ccccc4)c4ccccc4)C(C)=C1C3(C)C)[C@]1(OC(C)=O)CO[C@@H]1C[C@@H]2O` [taxol], in data set [1], the “efficacy relative to other cancer drugs in tumor cell culture” value is “more effective than etoposide and cisplatin”. For `Cc1cc(O)c2c(c1)C(=O)c1cc(O)cc(O)c1C2=O` [Emodin], in data set [2], the “competition with ATP” value is “ATP-competitive”. As for `COc1cccc2c1C(=O)c1c(O)c3c(c(O)c1C2=O)C[C@@](O)(C(=O)CO)C[C@@H]3O[C@H]1C[C@H](N)[C@H](O)[C@H](C)O1` [doxorubicin], the “efficacy relative to other cancer drugs in tumor cell culture” value in data set [1] was “more effective than etoposide and cisplatin”. For orientation: IC50 means the midpoint of a concentration-inhibition curve. The term inhibition denotes the percentage by which the read-out fell short of the control. Read a high inhibition as a strong effect. `O=C(NCc1ccc(CO)cc1)c1cc2cc(F)ccc2[nH]1` [Compound 1oooo]: in data set [3], the half-maximal inhibitory concentration (IC50) was 74 ± 2.7 µM. Also, the inhibition at 10 µM in data set [4] stood at 33%; in data set [5], 10%. On to `O=C(Nc1cc(O)cc(O)c1)c1cc2cc(F)ccc2[nH]1` [Compound 1r], for which at 10 µM the inhibition in data set [5] was 11%.

With `O=C(Nc1cccc(O)c1)c1cc2ccc(O)cc2cc1O` [Compound 2f], the IC50 in data set [6] (Example 3 hydroxynaphthalene series, 200 μM ATP, read-out: IC50) is 16 µM.

In the case of `N=c1oc2c(O)cccc2cc1C(=O)Nc1cccc(O)c1` [Iminochromene 9TA, iminochromene 9TA, reference compound], the “% Inhibition at 100 μM (std. dev.)” value in data set [6] (Example 3 hydroxynaphthalene series and published inhibitors, 100 μM inhibitor, 198 μM ATP) is recorded as 30 (+/−15) %. Turning to `O=C(NCc1cccc(O)c1)c1cc2cc(F)ccc2[nH]1` [Compound 1a], the IC50 in data set [3] was found to be 35 ± 0.59 µM; in data set [6] (column head: Src at 100 μM, read-out: Src IC50), 40 µM. Also, the “toxicity in mice (weight loss), MTD study” value in data set [7] is given as “less toxic in mice than compound 2k from Example 4”.

Compound `COc1cc(OC)c(CNC(=O)c2cc3cc(F)ccc3[nH]2)c(OC)c1` [Compound 1rr] came in with an inhibition at 10 µM in data set [5] of 12%. Take `O=C(NCc1ccccc1F)c1[nH]c2ccc(F)cc2c1-c1ccccc1` [Compound 2s]: the IC50 in data set [3] was 26 ± 0.34 µM. Besides, the inhibition at 10 µM in data set [4] was 33%; in data set [5], 10%; in data set [8], 11%.
